# Like-named read-outs stand apart in the source and are kept apart here.
# What was measured:
# [1] = test system: SVR (a transformed endothelial cell line); assay: SVR cellular proliferation assay; type: cell-based; conditions: Mus musculus, SVR cells; for inhibition at 10 µg/mL: 10 μg/mL; for inhibition at 15 µg/mL: 15 μg/mL
# Description: The SVR (a transformed endothelial cell line) proliferation assay can be used as a direct measure of antiangiogenic and antitumor activity. This assay serves as a high throughput screen that compares the effects of a compound on proliferation of SVR cells versus an immortalized endothelial cell line, MS1. […] SVR cells were plated in 24-well dishes. The next day, the medium was replaced with fresh medium containing the inhibitors or vehicle controls. Cells were incubated at 37° C. for 72 h (Arbiser, J. L., et al. 1999 J. Am. Acad. Dermatol. 40, 925-929; LaMontagne, K. R., et al. 2000 Am. J. Pathol. 157, 1937-1945), and cell number was determined in triplicate using a Coulter Counter (Hialeah, Fla.). Immortalized and K-Ras transformed rat epithelial cells (RIEpZip and […]) and fibroblasts (NIH3T3 pZip and NIH3T3 pZipK-Ras12V) were maintained at 37° C., 10% CO2, in Dulbecco's modified Eagle's medium supplemented with 5% fetal calf serum (RIE) or 10% calf serum (NIH3T3) (Oldham, S. M., et al. 1996 Proc. Natl. Acad. Sci. U.S.A. 93, 6924-6928; Pruitt, K., et al. 2000 J. Biol. Chem. 275, 40916-40924). Cells were plated at 10^5/well in six-well plates.
# HIV-1 = assay: HIV assay in PBM cells (RT activity); type: cell-based; conditions: Human immunodeficiency virus 1, PBMC, HIV-1 in human PBM cells; for EC50: read-out: Activity anti-VIH-1 on PBM cells EC50; for EC90: read-out: Activity anti-VIH-1 on PBM cells EC90
# Description: The antiviral activity of the synthesized compounds and honokiol were evaluated against HIV-1 in human peripheral blood mononuclear (PBM) cells (Table 4).
# Human peripheral blood mononuclear (PBM) cells (which can be obtained from Atlanta Red Cross) can be isolated by Ficoll-Hypaque discontinuous gradient centrifugation from healthy seronegative donors. Cells can be stimulated with phytohemagglutinin A (Difco, Sparks, Md.) for 2-3 days prior to use. HIV-1, such as HIV-1LAI can be obtained from the Centers for Disease Control and Prevention (Atlanta, Ga.), and can be used as the standard reference virus for the antiviral assays. The molecular infectious clones HIV-1xxBru and HIV-1M184Vpin can be obtained from Dr. John Mellors (University of Pittsburgh). Infections can be done in bulk for one hour, either with 100 TCID50/1×10^7 cells for a flask (T25) assay or with 200 TCID50/6×10^5 cells/well for a 24 well plate assay. Cells can be added to a plate or flask containing a ten-fold serial dilution of the test compound. Assay medium can be RPMI-1640 supplemented with heat inactivated 16% fetal bovine serum, 1.6 mM L-glutamine, 80 IU/ml penicillin, 80 μg/ml streptomycin, 0.0008% DEAE-Dextran, 0.045% sodium bicarbonate, and 26 IU/ml recombinant interleukin-2 (Chiron Corp, Emeryville, Calif.). AZT can be used as a positive control for the assay. Untreated and uninfected PBM cells can be grown in parallel at equivalent cell concentrations as controls. The cell cultures can be maintained in a humidified 5% CO2-air at 37° C. for 5 days and supernatants can be collected for reverse transcriptase (RT) activity.
# Supernatants can be centrifuged at 12,000 rpm for 2 hours to pellet the virus. The pellet can be solubilized with vortexing in 100 μl virus solubilization buffer (VSB) containing 0.5% Triton X-100, 0.8 M NaCl, 0.5 mM phenylmethylsulfonyl fluoride, 20% glycerol, and 0.05 M Tris, pH 7.8. Ten μL of each sample can be added to 75 μL RT reaction mixture (0.06 M Tris, pH 7.8, 0.012 M MgCl2, 0.006 M dithiothreitol, 0.006 mg/ml poly (rA)n, oligo (dT)12-18, 96 μg/ml dATP, and 1 μM of 0.08 mCi/ml ^3H-thymidine triphosphate (Moravek Biochemicals, Brea, Calif.) and can be incubated at 37° C. for 2 hours. The reaction can be stopped by the addition of 100 μL 10% trichloroacetic acid containing 0.05% sodium pyrophosphate. The acid insoluble product can be harvested onto filter paper using a Packard Harvester (Meriden, Conn.), and the RT activity can be read on a Packard Direct Beta Counter (Meriden, Conn.). The RT results can be expressed in counts per minute (CPM) per milliliter. The antiviral 50% effective concentration (EC50) and 90% effective concentration (EC90) can be determined from the concentration-response curve using the median effect method (Belen'kii, S. M.; Schinazi, R. S. Multiple drug effect analysis with confidence interval. Antiviral. Res. 1994, 25, 1-11).
# cytotoxicity assay (MTT) [2] = type: cell-based; conditions: for EC50 at 3 days: African green monkey; for EC50 at 4 days: human
# Description: (§1) The cytotoxicity of the honokiol and analogues thereof were assessed in human PBM, CEM and Vero cells (Table 4). Compounds can be evaluated for their potential toxic effects on uninfected human PBM cells, in CEM (T-lymphoblastoid cell line obtained from American Type Culture Collection, Rockville, Md.) and Vero (African green monkey kidney) cells. PBM cells can be obtained from whole blood of healthy seronegative donors (HIV-1) by single-step Ficoll-Hypaque discontinous gradient centrifugation. […] All of the cells can be plated in 96-well cell culture plates containing ten-fold serial dilutions of the test drug. […] At the end of incubation, MTT tetrazolium dye solution (Cell titer 96®, Promega, Madison, Wis.) can be added to each well and incubated overnight. The reaction can be stopped with stop solubilization solution (Promega, Madison, Wis.). […] The plates can be read at a wavelength of 570 nm using an ELISA plate reader (Bio-tek instruments, Inc., Winooski, Vt., Model #EL 312e). The 50% inhibition concentration (IC50) can be determined from the concentration-response curve using the median effect method.
# cytotoxicity assay (MTT) [3] = type: cell-based, human; conditions: human
# Description: as §1
# [4] = Vero kidney cells, Vero cells, read-out: Cytotoxicity (EC50-μM) in: VERO
# [5] = CEM T-lymphoblastoid cells, CEM cells, read-out: Cytotoxicity (EC50-μM) in: CEM
# [6] = uninfected PBM cells, read-out: Cytotoxicity (EC50-μM) in: PBM
# [7] = Vero cells, read-out: Cytotoxicity (EC50-μM) in: VERO
# [8] = CEM cells, read-out: Cytotoxicity (EC50-μM) in: CEM
Compound,inhibition at 10 µg/mL [1],inhibition at 15 µg/mL [1],further results
C=CCOc1ccc(/C=C/C(=O)CC(=O)/C=C/c2ccc(OCC=C)c(OC)c2)cc1OC,70%,67.9%,–
O=C(/C=C/c1ccccc1)Oc1cc(OC(=O)/C=C/c2ccccc2)cc(OC(=O)/C=C/c2ccccc2)c1,13.4%,8.6%,–
C=CCc1cc(C(C)(C)c2ccc(O)c(CC=C)c2)ccc1O,32.9%,57.1%,–
C=CCc1cc(-c2ncc(O)cn2)ccc1O,4.4%,10%,–
C=CCc1ccc(OS(=O)(=O)c2ccccc2)c(-c2ccc(OS(=O)(=O)c3ccccc3)c(CC=C)c2)c1,35.3%,37.9%,–
C=CCc1cccc(-c2cccc(CC=C)c2O)c1O [drawing 46],–,–,EC50 (HIV-1): 34.8 µM; EC90 (HIV-1): 63 µM; EC50 at 3 days (cytotoxicity assay (MTT) [2]; [4]): > 100 µM; EC50 at 4 days (cytotoxicity assay (MTT) [2]; [5]): > 100 µM; EC50 at 5 days (cytotoxicity assay (MTT) [3]; [6]): > 100 µM
CCCc1ccc(O)c(-c2ccc(O)c(CCC)c2)c1 [drawing 49],79.2%,89.6%,–
C=CCc1ccc(OC)c(-c2ccc(OC)c(CC=C)c2)c1 [drawing 45],–,–,EC50 (HIV-1): 54.3 µM; EC90 (HIV-1): > 100 µM; EC50 at 3 days (cytotoxicity assay (MTT) [2]; [4]): > 100 µM; EC50 at 4 days (cytotoxicity assay (MTT) [2]; [5]): 19.1 µM; EC50 at 5 days (cytotoxicity assay (MTT) [3]; [6]): > 100 µM
C=CCc1ccc2c(c1)-c1cc(CC=C)ccc1OC(C)(C)O2 [drawing 42],–,–,EC50 (HIV-1): 13.6 µM; EC90 (HIV-1): 43.3 µM; EC50 at 3 days (cytotoxicity assay (MTT) [2]; [4]): > 100 µM; EC50 at 4 days (cytotoxicity assay (MTT) [2]; [5]): 11.6 µM; EC50 at 5 days (cytotoxicity assay (MTT) [3]; [6]): 75.3 µM
CCCc1ccc(O)c(-c2ccc(O)c(CCC)c2)c1 [drawing 44],–,–,EC50 (HIV-1): 16.9 µM; EC90 (HIV-1): 69.4 µM; EC50 at 3 days (cytotoxicity assay (MTT) [2]; [4]): 19.8 µM; EC50 at 4 days (cytotoxicity assay (MTT) [2]; [5]): 10.4 µM; EC50 at 5 days (cytotoxicity assay (MTT) [3]; [6]): 45.9 µM
C=CCc1ccc(O)c(-c2cc(CC=C)ccc2O)c1,–,–,EC50 (HIV-1): 69.3 µM; EC90 (HIV-1): > 100 µM; EC50 at 3 days (cytotoxicity assay (MTT) [2]; [7]): 79.9 µM; EC50 at 4 days (cytotoxicity assay (MTT) [2]; [8]): 99.6 µM; EC50 at 5 days (cytotoxicity assay (MTT) [3]; [6]): 38.6 µM
C=CCc1c(O)ccc2c3ccccc3n(CC=C)c12,69.7%,78.7%,–
C=CCc1cc(C(=C(Cl)Cl)c2ccc(O)c(CC=C)c2)ccc1O,53.6%,75.6%,–
C=CCc1ccc2c(c1)-c1cc(CC=C)ccc1OC(C)(C)O2 [drawing 54],61.9%,59.7%,–
C=CCc1cc(-c2ccc(O)c(CC=C)c2)ccc1O [drawing 47],–,–,EC50 (HIV-1): 19.4 µM; EC90 (HIV-1): 66.4 µM; EC50 at 3 days (cytotoxicity assay (MTT) [2]; [7]): 33.2 µM; EC50 at 4 days (cytotoxicity assay (MTT) [2]; [8]): 23 µM; EC50 at 5 days (cytotoxicity assay (MTT) [3]; [6]): > 100 µM
C=CCc1ccc(OC)c(-c2ccc(OC)c(CC=C)c2)c1 [drawing 55],40.6%,47.2%,–
C=CCc1cc(-c2cccc(CC=C)c2O)ccc1O,74.2%,81.6%,–
C=CCc1ccc(O)c(-c2ccc(O)c(CC=C)c2)c1 [drawing 43],–,–,EC50 (HIV-1): 3.3 µM; EC90 (HIV-1): 22.7 µM; EC50 at 3 days (cytotoxicity assay (MTT) [2]): 22.5 µM; EC50 at 4 days (cytotoxicity assay (MTT) [2]): 10.9 µM; EC50 at 5 days (cytotoxicity assay (MTT) [3]): 16.1 µM
C=CCc1cccc(-c2ccccc2O)c1O,47.1%,59.3%,–
C=CCc1ccc(O)c(-c2ccc(O)c(CC=C)c2)c1 [drawing 48],59.9%,85%,–
C=CCc1cccc(-c2cccc(CC=C)c2O)c1O [drawing 50],40.8%,57.2%,–
C=CCc1cc2c3ccccc3n(CC=C)c2cc1O,68.9%,76.1%,–
C=CCOc1cc2c(cc1OCC=C)C1c3ccc(OCC=C)c(OCC=C)c3OCC1(O)C2 (stereo not drawn),13.8%,41.8%,–
C=CCc1ccc(O)c(CC=C)c1O,37.2%,36%,–
C=CCc1cc(C(c2ccc(O)c(CC=C)c2)c2ccccn2)ccc1O,25.2%,46.1%,–
C=CCOc1ccc(/C=C/C(=O)CC(=O)/C=C/c2ccc(O)c(OC)c2)cc1OC,75.2%,78.8%,–
O=C(CCc1ccccc1)Oc1cc(OC(=O)CCc2ccccc2)cc(OC(=O)CCc2ccccc2)c1,5%,25%,–
